In patent US11702402B2, “Small molecules that block proteasome-associated ubiquitin receptor RPN13 function and uses thereof” (DANA-FARBER CANCER INSTITUTE, INC., priority 2018, dated 2023):
Entries after “also recorded” stand apart in the source; their conditions may differ.

How the values were obtained:
RPN13 [1] = target: T1, RPN13 (Homo sapiens, UniProt Q16186); assay: Rpn13 immunoblot in MM.1S-CRBN KO cells; assay type: cell-based; design: endogenous in cells; host or cells: MM.1S; MM.1S-CRBN KO; RPMI-8226; ANBL6.BR; conditions: 400 nM, 16 hours, versus DMSO
T1 sequence (Q16186 whole entry): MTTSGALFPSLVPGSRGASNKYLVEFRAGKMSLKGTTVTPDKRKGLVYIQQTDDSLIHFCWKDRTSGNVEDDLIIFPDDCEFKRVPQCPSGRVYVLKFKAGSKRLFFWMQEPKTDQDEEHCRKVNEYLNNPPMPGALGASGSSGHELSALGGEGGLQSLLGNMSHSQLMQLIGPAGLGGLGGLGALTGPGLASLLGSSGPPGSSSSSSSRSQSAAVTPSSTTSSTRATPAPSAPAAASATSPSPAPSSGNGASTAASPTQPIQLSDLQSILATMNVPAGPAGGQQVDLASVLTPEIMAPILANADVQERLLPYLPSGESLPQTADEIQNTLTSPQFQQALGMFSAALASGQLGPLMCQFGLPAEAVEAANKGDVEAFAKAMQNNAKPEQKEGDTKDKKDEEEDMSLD
Protocol: (§1) FIGS. 19A-19I show the exemplary design and characterization of exemplary Rpn13 degrader WL40. […] WL40 was created by linking the Rpn13 inhibitor RA190 to the IMiD thalidomide as a ligand for the CRBN E3 ligase via a PEG linker. […] FIG. 19C is a schematic cartoon for the novel AlphaScreen assay to measure the binding activity of inhibitor with RPN13 proteins. […] FIG. 19E depicts immunoblot analysis of multiple myeloma 1S (MM.1S) cells, which were treated with WL40 or RA190 at the indicated concentrations and time periods; protein lysates were subjected to the immunoblot analysis using anti-Rpn13 or anti-tubulin Abs. FIG. 19F depicts flow cytometry analysis of MM.1S cells, which were treated with DMSO control, WL40 (400 nM), or RA190 (500 nM) for 16 hours; cells were then washed and stained with Rpn13 Ab conjugated with AlexaFluor-647, followed by the flow cytometry analysis. Isotype Ab conjugated to AlexaFluor-647 was used as control for non-specific binding. Data was quantified using FACS Diva (BD Biosciences, USA) and FlowJo (FlowJo LLC, USA). […]
To confirm that CRBN presence is a prerequisite for the function of WL40 in cells, CRBN-knockout (KO) MM.1S cells^27, 38 were utilized, and the effect of WL40 on Rpn13 degradation was examined. […] GFPu-1 cells were treated with WL40, and GFP levels were then analyzed using immunoblotting. […]

LC3A/B = assay: Autophagy marker LC3A/B immunoblot; assay type: cell-based, Human; conditions: ANBL6.BR or MM.1S; versus DMSO or RA190
[2] = system: polyubiquitinated (PolyUb) protein; assay: Polyubiquitinated protein immunoblot in MM.1S and ANBL6.BR cells; assay type: cell-based, Human; conditions: MM.1S: WL40 200 nM, RA190 300 nM, bortezomib 5 nM; ANBL6.BR: WL40 1 μM 6 hours
Protocol: MM.1S cells, which were treated with DMSO control, bortezomib, or WL40 at indicated concentration for 3 hours; protein lysates were analyzed for different proteasome activities (CT-L, chymotrypsin-like; T-L, trypsin-like; C-L, caspase-like). FIG. 20B is a bar graph showing percent proteasome activity after normalization with DMSO control (mean±SD; n=3). Recombinant 20S proteasome was incubated with DMSO, bortezomib, or WL40 for 30 minutes, followed by assessment of the above-noted proteasome activities. FIG. 20C MM.1S cells were pretreated with exemplary proteasome inhibitor MG132 (10 μM) for 1 hour, followed by addition of WL40 (400 nM) for 8 hours. […] Total protein lysates were subjected to immunoblots for Rpn13 and α-tubulin. […] FIG. 20E ANBL6.BR cells were treated with WL40 (400 nM) or RA190 (500 nM) for 16 hours; protein lysates were subjected to immunoblot analysis using anti-Rpn13 or anti-β-actin Abs.
Cellular protein extracts were prepared using RIPA lysis buffer (50 mM Tris-HCl, 150 mM NaCl, 1% NP-40, 0.5% sodium deoxycholate, and 0.1% SDS). […]
Next, the effect of WL40 on additional MM cell lines, including p53-mutated RPMI-8226 cells or bortezomib-resistant ANBL6.BR cells, was evaluated. […]

RPN13 [3] = target: T1, RPN13; assay: Rpn13 flow cytometry in MM.1S cells; assay type: cell-based; design: endogenous in cells; host or cells: MM.1S; MM.1S-CRBN KO; RPMI-8226; ANBL6.BR; conditions: WL40 (400 nM) 16 hours, versus DMSO or RA190 (500 nM)
Protocol: as §1, with “Isotype Ab conjugated to AlexaFluor-647 was used as control for non-specific binding.” left out
Next, it was examined whether WL40 decreases cellular Rpn13 levels in MM cells. MM.1S cells were treated with various concentrations of WL40 (20 0 nM, 400 nM, or 800 nM) for 4 hours, 8 hours, and 16 hours; protein lysates were then analyzed for Rpn13 levels using immunoblot analysis. […] To further corroborate the findings, MM.1S cells were treated with WL40, and then analyzed intracellular alterations in Rpn13 using flow cytometry.

## O=C1CCC(N2C(=O)c3cccc(NCCOCCOCCOCCC(=O)N[C@@H](Cc4ccccc4)C(=O)N4C/C(=C\c5ccc(Cl)c(Cl)c5)C(=O)/C(=C/c5ccc(Cl)c(Cl)c5)C4)c3C2=O)C(=O)N1 (stereo partly shown) [WL40]
RPN13 [1]
  Rpn13 levels (immunoblot): no decrease in Rpn13 levels
LC3A/B
  LC3A/B level / LC3 activation: significant increase in LC3A/B; also recorded: more pronounced LC3 activation
[2]
  PolyUb protein accumulation (immunoblot): marked increase in PolyUb proteins; also recorded: more rapid and higher molecular weight PolyUb versus bortezomib
RPN13 [3]
  Rpn13 expression (flow cytometry): significant reduction in Rpn13 expression
